In experiment [1] the test system is PKB/Akt phosphorylation in mast cells. Briefly: SCF-induced PKB/Akt phosphorylation in mast cells. In kind it is cell-based, mice. The following applies: Mast cell, 0.25 h; mast cells derived from mouse bone marrow, 20 ng/mL SCF for 15 minutes; read-out: IC50, inhibition of SCF-induced Akt Phosphorylation. As to the method:
Protocol: Primary bone marrow cells were isolated from 4-8 weeks old wild type mice and derived to mast cells by incubation with medium containing 20 ng/mL of stem cell factor (SCF) (PeproTech, Switzerland) and 20 ng/mL of IL-3 (PeproTech, Switzerland) for at least 4 weeks. Confirmation of the expression of mast cell specific surface markers was done by FACS analysis using antibodies against c-kit (cKit-PE mouse antibody; Pharmingen). Cells were maintained in culture in the presence of SCF and IL-3. To induce PKB/Akt phosphorylation, mast cells were resuspended at 2.5×10^6 cells/mL and starved in medium containing no SCF or IL-3 for 24 h. After preincubation with compounds or 1% DMSO for 20 minutes, cells were activated with 20 ng/mL of SCF for 15 minutes at 37° C., fixed in 1.5% paraformaldehyde for 20 minutes and permeabilised with 0.2% Triton X-100 for 10 minutes, at room temperature. PKB/Akt phosphorylation was visualized using phospho-Ser-473 specific Akt antibodies (Cell Signaling) and standard FACS protocols.

In experiment [2] the test system is Akt phosphorylation in B cells. Briefly: IgM-induced Akt phosphorylation in B cell (human PBMC, flow cytometry). In kind it is cell-based. The following applies: 5 min, CD19+ IgM+ B cells in human PBMC, anti IgM for 5 minutes, read-out: IC50, inhibition of IgM-induced Akt Phosphorylation. As to the method:
Human PBMC were prepared from a Buffy coat (Geneve Hospital) after a Ficoll gradient (FICOLL-PAQUE Plus PHARMACIA ref: 17-1440-03).
Cell concentration was adjusted to 10^6 cells per ml in RPMI (GIBCO Ref: 72400-21) without serum. Before stimulation, 90 μl of PBMC suspension was incubated with 10 μl of diluted compound in a 96 well round bottom plate for 20 minutes at 37° C.
For B cell activation, 30 μl of Fab′2 Goat anti IgM (Jackson Immuno-research) at 10 μg/ml was added to each well. After 5 minutes, cell activation was stopped with 4% paraformaldehyde (10 minutes at room temperature).
Fixed PBMC were then treated for 20 minutes with 0.15% Triton, washed twice with PBS and permeabilized with 50% methanol for 15 minutes.
PBMC were washed twice in PBS, resuspended in: PBS-4% FCS and incubated with anti P-Akt (1/100 dilution) for one hour at room temperature.
After one wash, PBMC were further stained for 30 minutes with a mixture of anti-CD19-PE (BD Biosciences), anti-IgM-FITC (BD Biosciences) and goat anti rabbit IgG-Alexa 647 (Molecular probe).
After washing, PBMC (Peripheral Blood Mononuclear Cells) were analysed on a FACSCalibur instrument (BD Biosciences) equipped with a 633 helium-neon laser, or stored at 4° C. for further analysis. 510^3 B cells events were gathered per sample in the CD19 positive region.
For the analysis, a threshold was applied on P-Akt histogram of CD 19+ IgM+ lymphocytes cells from the non-stimulated samples and the percentage of cells above this threshold was determined for each sample.

The term IC50 denotes the concentration at which inhibition is half-maximal. As to `COc1cc(Nc2nc3ccccc3nc2NS(=O)(=O)c2ccc(CN3CCOCC3)cc2)cc(OC)c1` [Example 136, N-{3-[(3,5-dimethoxyphenyl)amino]quinoxalin-2-yl}-4-(morpholin-4-ylmethyl)benzenesulfonamide], the IC50 is 1.22 µM in experiment [1] and 0.37 µM in experiment [2].

Regarding `COc1cc(Nc2nc3ccccc3nc2NS(=O)(=O)c2ccccc2F)cc(OC)c1` [Example 15, N-{3-[(3,5-dimethoxyphenyl)amino]quinoxalin-2-yl}-2-fluorobenzene sulfonamide], in experiment [2], the IC50 came to 0.026 µM.

As to `COc1cc(Nc2nc3ccccc3nc2NS(=O)(=O)c2ccc(CN3CCN(C)CC3)nc2)cc(OC)c1` [Example 149, N-{3-[(3,5-dimethoxyphenyl)amino]quinoxalin-2-yl}-6-[(4-methylpiperazin-1-yl)methyl]pyridine-3-sulfonamide], in experiment [1], the IC50 was found to be 0.39 µM.

Consider `COc1cc(Nc2nc3ccccc3nc2NS(=O)(=O)c2cccnc2)cc(OC)c1` [Example 95, N-{3-[(3,5-dimethoxyphenyl)amino]quinoxalin-2-yl}pyridine-3-sulfonamide], for which the IC50 in experiment [1] is 1.6 µM.

Turning to `COc1cc(Nc2nc3ccccc3nc2NS(=O)(=O)c2cccc(CN3CCN(C)CC3)c2)cc(OC)c1` [Example 137, N-{3-[(3,5-dimethoxyphenyl)amino]quinoxalin-2-yl}-3-[(4-methylpiperazin-1-yl)methyl]benzenesulfonamide], the concentration for half-maximal inhibition (IC50) stood at 0.4 µM in experiment [1] and 0.04 µM in experiment [2].

As for `COc1ccc(Cl)c(Nc2nc3ccccc3nc2NS(=O)(=O)c2ccc(C)nc2)c1` [Example 111, N-{3-[(2-chloro-5-methoxyphenyl)amino]quinoxalin-2-yl}-6-methylpyridine-3-sulfonamide], in experiment [2], the IC50 worked out at 0.026 µM.

For the compound `COc1cc(Nc2nc3ccccc3nc2NS(=O)(=O)c2ccc(CN)s2)cc(OC)c1` [Example 150, 5-(aminomethyl)-N-{3-[(3,5-dimethoxyphenyl)amino]quinoxalin-2-yl}thiophene-2-sulfonamide], the values for the IC50 in experiment [1] and in experiment [2] were 0.09 µM and 0.007 µM, respectively.

Turning to `COc1ccc(OC)c(Nc2nc3ccccc3nc2NS(=O)(=O)c2ccc(CN)cc2)c1` [Example 131, 4-(aminomethyl)-N-{3-[(2,5-dimethoxyphenyl)amino]quinoxalin-2-yl}benzenesulfonamide], the IC50 in experiment [1] turned out to be 0.15 µM; in experiment [2], 0.013 µM.

Regarding `COc1cc(Nc2nc3ccccc3nc2NS(=O)(=O)c2ccc(CO)cc2)cc(OC)c1` [Example 134, N-{3-[(3,5-dimethoxyphenyl)amino]quinoxalin-2-yl}-4-(hydroxymethyl)benzenesulfonamide], in experiment [1], the IC50 was 0.21 µM.

`COc1cc(Nc2nc3ccccc3nc2NS(=O)(=O)c2ccc(CN3CCN(C)CC3)cc2)cc(OC)c1` [Example 130, N-{3-[(3,5-dimethoxyphenyl)amino]quinoxalin-2-yl}-4-[(4-methylpiperazin-1-yl)methyl]benzenesulfonamide]: the IC50 in experiment [1] came to 0.13 µM; in experiment [2], 0.06 µM.

With `COc1cc(Nc2nc3ccccc3nc2NS(=O)(=O)c2cn(C)cn2)cc(OC)c1` [Example 20, N-{3-[(3,5-dimethoxyphenyl)amino]quinoxalin-2-yl}-1-methyl-1H-imidazole-4-sulfonamide], the values for the IC50 in experiment [1] and in experiment [2] were 0.41 µM and 0.024 µM, respectively.

Take `COc1ccc(C)c(Nc2nc3ccccc3nc2NS(=O)(=O)c2ccc(C#N)cc2)c1` [Example 109, 4-cyano-N-{3-[(5-methoxy-2-methylphenyl)amino]quinoxalin-2-yl}benzenesulfonamide]: in experiment [1], the IC50 worked out at 0.82 µM.

As to `COc1cc(Nc2nc3ccccc3nc2NS(=O)(=O)c2cccc(CN3CCOCC3)c2)cc(OC)c1` [Example 129, N-{3-[(3,5-dimethoxyphenyl)amino]quinoxalin-2-yl}-3-(morpholin-4-ylmethyl)benzenesulfonamide], the IC50 in experiment [2] was 0.29 µM.

Turning to `COc1ccc(C)c(Nc2nc3ccccc3nc2NS(=O)(=O)c2cccnc2)c1` [Example 101, N-{3-[(5-methoxy-2-methylphenyl)amino]quinoxalin-2-yl}pyridine-3-sulfonamide], in experiment [2], the half-inhibitory concentration (IC50) is 0.15 µM.

As to `COc1cc(Nc2nc3ccccc3nc2NS(=O)(=O)c2ccc(C#N)cc2)cc(OC)c1` [Example 39, 4-cyano-N-{3-[(3,5-dimethoxyphenyl)amino]quinoxalin-2-yl}benzene sulfonamide], the IC50 in experiment [1] amounted to 0.35 µM; in experiment [2] it was 0.011 µM.

Take `COc1cc(Nc2nc3ccccc3nc2NS(=O)(=O)c2ccccc2Cl)cc(OC)c1` [Example 38, 2-chloro-N-{3-[(3,5-dimethoxyphenyl)amino]quinoxalin-2-yl}benzene sulfonamide]: the IC50 in experiment [1] came to 1.89 µM; in experiment [2], 0.04 µM.

Take `COc1cc(Nc2nc3ccccc3nc2NS(=O)(=O)c2ccc(F)cc2)cc(OC)c1` [Example 56, N-{3-[(3,5-dimethoxyphenyl)amino]quinoxalin-2-yl}-4-fluorobenzene Sulfonamide]: the IC50 in experiment [1] stood at 2.42 µM.

As to `COc1cc(Nc2nc3ccccc3nc2NS(=O)(=O)c2ccc(CO)nc2)cc(OC)c1` [Example 135, N-{3-[(3,5-dimethoxyphenyl)amino]quinoxalin-2-yl}-6-(hydroxymethyl)pyridine-3-sulfonamide], the half-inhibitory concentration (IC50) in experiment [1] amounted to 0.54 µM.

`COc1cc(Nc2nc3ccccc3nc2NS(=O)(=O)c2cccc(CN(C)C)c2)cc(OC)c1` [Example 139, N-{3-[(3,5-dimethoxyphenyl)amino]quinoxalin-2-yl}-3-[(dimethylamino)methyl]benzenesulfonamide]: the IC50 in experiment [1] was determined as 0.27 µM; in experiment [2], 0.027 µM.

Take `COc1cc(Nc2nc3ccccc3nc2NS(=O)(=O)c2cccc(CO)c2)cc(OC)c1` [Example 132, N-{3-[(3,5-dimethoxyphenyl)amino]quinoxalin-2-yl}-3-(hydroxymethyl)benzenesulfonamide]: the IC50 in experiment [1] came out at 0.68 µM.

Take `COc1ccc(C)c(Nc2nc3ccccc3nc2NS(=O)(=O)c2ccc(C)nc2)c1` [Example 110, N-{3-[(5-methoxy-2-methylphenyl)amino]quinoxalin-2-yl}-6-methylpyridine-3-sulfonamide]: the 50% inhibitory concentration (IC50) in experiment [2] stood at 0.14 µM.

Consider `COc1ccc(OC)c(Nc2nc3ccccc3nc2NS(=O)(=O)c2ccccc2F)c1` [Example 14, N-{3-[(2,5-dimethoxyphenyl)amino]quinoxalin-2-yl}-2-fluorobenzene sulfonamide], for which the IC50 in experiment [2] came to 0.034 µM.

With `COc1cc(Nc2nc3ccccc3nc2NS(=O)(=O)c2ccc(C)nc2)cc(OC)c1` [Example 106, N-{3-[(3,5-dimethoxyphenyl)amino]quinoxalin-2-yl}-6-methylpyridine-3-sulfonamide], the concentration for half-maximal inhibition (IC50) in experiment [1] came to 1.22 µM.

Take `COc1ccc(OC)c(Nc2nc3ccccc3nc2NS(=O)(=O)c2ccccc2Cl)c1` [Example 42, 2-chloro-N-{3-[(2,5-dimethoxyphenyl)amino]quinoxalin-2-yl}benzene sulfonamide]: the IC50 in experiment [2] came to 0.11 µM.

(Values after patent US8877757B2, “Pyrazine derivatives and use as PI3K inhibitors” (Merck Serono SA, priority 2005, dated 2014).)
